Patent US9790180B2, “Piperidine derivatives as HDAC1/2 inhibitors” (Acetylon Pharmaceuticals, Inc., priority 2014, dated 2017)
≈ marks a conversion by molar mass, not a printed value.

Key:
Solubility = assay type: physicochemical
HDAC3 = HDAC3 (Homo sapiens (Human), UniProt O15379); experiment: HDAC enzyme assay, HDAC3; assay type: biochemical; conditions: 24 hours pre-incubation with enzyme; read-out: IC50 (nM) HDAC3
[1] = tested on: fetal β-like globin (HbG, γ); experiment: Fetal globin induction assay in CD34+ cells isolated from human bone marrow; assay type: cell-based
Protocol: CD34+ cells isolated from human bone marrow were cultured in vitro using a method described by Bradner J E (Proc Natl Acad Sci USA. 2010 Jul. 13; 107(28):12617-22), which consists of a 7 day expansion phase in media that supports differentiation of cells towards the erythroid lineage followed by a differentiation phase for 3 days where erythroid cell development continues. At the end of the differentiation period these cells are primarily late erythroblasts. mRNA levels were determined by quantitative real time PCR using primer/probe sets designed to adult major β-globin (β), adult minor β-globin (δ), fetal β-like globin (HbG, γ), and embryonic β-like globin (ε). Protein levels were determined by flow cytometry using fluorescent antibodies against fetal hemoglobin (HbF) or adult hemoglobin (HbA).
In the experiment shown in FIG. 3, cells were differentiated in the presence of vehicle (DMSO) 0.3, 1 and 3 μM of Compound A, and of 0.3, 1, and 3 μM of Compound 003. In the experiment shown in FIG. 6, cells were differentiated in the presence of vehicle (DMSO) 0.3, 1 and 3 μM of Compound A, and of 0.3, 1, and 3 μM of Compound 005. Globin mRNA levels were determined at day 3 of differentiation.

HDAC3, sequence (O15379 whole entry): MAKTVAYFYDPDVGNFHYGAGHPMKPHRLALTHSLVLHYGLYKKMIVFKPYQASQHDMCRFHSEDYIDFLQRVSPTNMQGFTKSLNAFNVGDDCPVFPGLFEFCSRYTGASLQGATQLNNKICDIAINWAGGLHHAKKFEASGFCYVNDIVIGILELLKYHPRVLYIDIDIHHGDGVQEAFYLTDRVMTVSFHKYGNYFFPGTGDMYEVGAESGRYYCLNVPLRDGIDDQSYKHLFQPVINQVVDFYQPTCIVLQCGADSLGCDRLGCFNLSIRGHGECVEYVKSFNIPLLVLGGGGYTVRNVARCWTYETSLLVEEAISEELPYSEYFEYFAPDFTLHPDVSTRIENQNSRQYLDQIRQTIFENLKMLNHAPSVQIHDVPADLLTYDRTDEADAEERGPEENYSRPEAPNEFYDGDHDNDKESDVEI
HDAC3, sequence (Q9Y618 395-489 partner): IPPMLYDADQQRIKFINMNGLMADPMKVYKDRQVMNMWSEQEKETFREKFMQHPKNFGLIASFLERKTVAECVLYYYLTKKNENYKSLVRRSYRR

In the case of `CN1CCN(C(=O)N2CCC(Nc3ccc(C(=O)Nc4cc(-c5cccs5)ccc4N)cc3)CC2)CC1` [Compound 005], the solubility (Solubility) is reported as 13.8 µM (≈ 7.16 µg/mL), the IC50 (HDAC3) is reported as 82 nM and the “Cell based assay potency” value ([1]; lowest concentration to achieve a 2 fold increase in fetal globin gene expression over baseline) is reported as 1000 nM. For the same compound, the “induction of % HbG” value ([1]; primary erythroid progenitors, 3 days differentiation (FIG. 6)) was “equivalent dose and time-dependent induction”.
